Columns and labels:
Botrytis cinerea [1] = type: cell-based; settings: 120 h, 25 ppm by volume, Vogel medium, 20° C., five days, dark, read-out: growth inhibition ratio
Fusarium graminearum = assay: microbe, parasite or virus in culture; type: cell-based; settings: 96 h, read-out: growth inhibition ratio
Botrytis cinerea [2] = assay: Control test of cucumber gray mold (sprayed young cucumber seedlings); type: in vivo; settings: 96 h, four days after inoculation; for pest or weed control at 25 ppm: 25 ppm by mass spray; for pest or weed control at 125 ppm: 125 ppm by mass spray
Protocol: Then, the drug liquid was sprayed onto young cucumber seedlings cultivated in a nursery pot (variety “Jihai”-based, cotyledon stage), and then air-dried. […] They were left still in a moist room at 20° C. Four days after inoculation, leaves of the young cucumber seedlings were visually observed, and the control value was calculated from the lesion area ratio in accordance with the following equation. [formula]

Venturia inaequalis = assay: Control test of apple scab disease (sprayed young apple seedlings); type: in vivo; settings: 125 ppm by mass spray, 12 to 14 days after inoculation
[3] = system: Erysiphe graminis f.sp.tritici; assay: Control test of wheat powdery mildew disease (sprayed young wheat seedlings); type: in vivo; settings: Blumeria graminis, 144 h, 125 ppm by mass spray, six days after inoculation
Colletotrichum acutatum = assay: Fungicidal effect test against fungi causing apple anthracnose; settings: 96 h, read-out: growth inhibition ratio
Glomerella cingulata = assay: Fungicidal effect test against fungi causing grape ripe rot disease; settings: Colletotrichum gloeosporioides, 72 h, read-out: growth inhibition ratio

COC(=O)N(Cc1ccc(C)cc1C)NC(=O)c1c(C)cncc1Oc1cccc(C2CC2)c1 [b-149]
≥ 75%: inhibition of growth at 25 ppm (Botrytis cinerea [1]) | inhibition of growth at 25 ppm (Fusarium graminearum) | pest or weed control at 25 ppm (Botrytis cinerea [2]) | pest or weed control at 125 ppm (Botrytis cinerea [2]) | pest or weed control at 125 ppm (Venturia inaequalis) | pest or weed control at 125 ppm [3] | inhibition of growth at 25 ppm (Colletotrichum acutatum) | inhibition of growth at 25 ppm (Glomerella cingulata)

COC(=O)N(Cc1ccc(C)cc1C)NC(=O)c1ccncc1Oc1cccc(C2CC2)c1F [b-150]
≥ 75%: inhibition of growth at 25 ppm (Botrytis cinerea [1]) | inhibition of growth at 25 ppm (Fusarium graminearum) | pest or weed control at 25 ppm (Botrytis cinerea [2]) | pest or weed control at 125 ppm (Botrytis cinerea [2]) | pest or weed control at 125 ppm (Venturia inaequalis) | pest or weed control at 125 ppm [3] | inhibition of growth at 25 ppm (Colletotrichum acutatum) | inhibition of growth at 25 ppm (Glomerella cingulata)

COC(=O)N(Cc1ccc(C)cc1C)NC(=O)c1cc(C)nnc1Oc1cccc(F)c1F [b-152]
≥ 75%: inhibition of growth at 25 ppm (Botrytis cinerea [1]) | inhibition of growth at 25 ppm (Fusarium graminearum) | pest or weed control at 25 ppm (Botrytis cinerea [2]) | pest or weed control at 125 ppm (Botrytis cinerea [2]) | pest or weed control at 125 ppm (Venturia inaequalis) | pest or weed control at 125 ppm [3] | inhibition of growth at 25 ppm (Colletotrichum acutatum) | inhibition of growth at 25 ppm (Glomerella cingulata)

COC(=O)N(Cc1ccc(C)cc1OC)NC(=O)c1cc(C)nnc1Oc1cccc(C2CC2)c1F [b-153]
≥ 75%: inhibition of growth at 25 ppm (Botrytis cinerea [1]) | inhibition of growth at 25 ppm (Fusarium graminearum) | pest or weed control at 25 ppm (Botrytis cinerea [2]) | pest or weed control at 125 ppm (Botrytis cinerea [2]) | pest or weed control at 125 ppm (Venturia inaequalis) | pest or weed control at 125 ppm [3] | inhibition of growth at 25 ppm (Colletotrichum acutatum) | inhibition of growth at 25 ppm (Glomerella cingulata)

CCc1cc(C(=O)NN(Cc2ccc(OC)cc2C)C(=O)OC)c(Oc2cccc(C3CC3)c2F)nn1 [b-154]
≥ 75%: inhibition of growth at 25 ppm (Botrytis cinerea [1]) | inhibition of growth at 25 ppm (Fusarium graminearum) | pest or weed control at 25 ppm (Botrytis cinerea [2]) | pest or weed control at 125 ppm (Botrytis cinerea [2]) | pest or weed control at 125 ppm (Venturia inaequalis) | pest or weed control at 125 ppm [3] | inhibition of growth at 25 ppm (Colletotrichum acutatum) | inhibition of growth at 25 ppm (Glomerella cingulata)

COC(=O)N(Cc1ccc(OC)cc1C)NC(=O)c1cc(C)nnc1Oc1cccc(Cl)c1F [b-168]
≥ 75%: inhibition of growth at 25 ppm (Botrytis cinerea [1]) | inhibition of growth at 25 ppm (Fusarium graminearum) | pest or weed control at 125 ppm (Botrytis cinerea [2]) | pest or weed control at 125 ppm (Venturia inaequalis) | pest or weed control at 125 ppm [3] | inhibition of growth at 25 ppm (Colletotrichum acutatum) | inhibition of growth at 25 ppm (Glomerella cingulata)

COC(=O)N(Cc1ccc(C)cc1C)NC(=O)c1cc(Cl)nnc1Oc1cccc(Cl)c1F [b-169]
≥ 75%: inhibition of growth at 25 ppm (Botrytis cinerea [1]) | inhibition of growth at 25 ppm (Fusarium graminearum) | pest or weed control at 125 ppm (Botrytis cinerea [2]) | pest or weed control at 125 ppm (Venturia inaequalis) | pest or weed control at 125 ppm [3] | inhibition of growth at 25 ppm (Colletotrichum acutatum) | inhibition of growth at 25 ppm (Glomerella cingulata)

COC(=O)N(Cc1ccc(OC)cc1C)NC(=O)c1cc(Cl)nnc1Oc1cccc(Cl)c1F [b-170]
≥ 75%: inhibition of growth at 25 ppm (Botrytis cinerea [1]) | inhibition of growth at 25 ppm (Fusarium graminearum) | pest or weed control at 125 ppm (Botrytis cinerea [2]) | pest or weed control at 125 ppm (Venturia inaequalis) | pest or weed control at 125 ppm [3] | inhibition of growth at 25 ppm (Colletotrichum acutatum) | inhibition of growth at 25 ppm (Glomerella cingulata)

COC(=O)N(Cc1ccc(OC)cc1Cl)NC(=O)c1cc(C)nnc1Oc1cccc(C2CC2)c1F [b-171]
≥ 75%: inhibition of growth at 25 ppm (Botrytis cinerea [1]) | inhibition of growth at 25 ppm (Fusarium graminearum) | pest or weed control at 25 ppm (Botrytis cinerea [2]) | pest or weed control at 125 ppm (Botrytis cinerea [2]) | pest or weed control at 125 ppm (Venturia inaequalis) | pest or weed control at 125 ppm [3] | inhibition of growth at 25 ppm (Colletotrichum acutatum) | inhibition of growth at 25 ppm (Glomerella cingulata)

COC(=O)N(Cc1ccc(C)cc1Cl)NC(=O)c1c(Oc2cccc(Cl)c2F)nnc(Cl)c1C [b-176]
≥ 75%: inhibition of growth at 25 ppm (Botrytis cinerea [1]) | inhibition of growth at 25 ppm (Fusarium graminearum) | pest or weed control at 25 ppm (Botrytis cinerea [2]) | pest or weed control at 125 ppm (Botrytis cinerea [2]) | pest or weed control at 125 ppm (Venturia inaequalis) | pest or weed control at 125 ppm [3] | inhibition of growth at 25 ppm (Colletotrichum acutatum) | inhibition of growth at 25 ppm (Glomerella cingulata)

COC(=O)N(Cc1ccc(C)cc1Cl)NC(=O)c1c(C)cnnc1Oc1cccc(C2CC2)c1F [b-177]
≥ 75%: inhibition of growth at 25 ppm (Botrytis cinerea [1]) | inhibition of growth at 25 ppm (Fusarium graminearum) | pest or weed control at 25 ppm (Botrytis cinerea [2]) | pest or weed control at 125 ppm (Botrytis cinerea [2]) | pest or weed control at 125 ppm (Venturia inaequalis) | pest or weed control at 125 ppm [3] | inhibition of growth at 25 ppm (Colletotrichum acutatum) | inhibition of growth at 25 ppm (Glomerella cingulata)

COC(=O)N(Cc1ccc(C)cc1Cl)NC(=O)c1c(C)cncc1Oc1cccc(C2CC2)c1 [b-178]
≥ 75%: inhibition of growth at 25 ppm (Botrytis cinerea [1]) | inhibition of growth at 25 ppm (Fusarium graminearum) | pest or weed control at 25 ppm (Botrytis cinerea [2]) | pest or weed control at 125 ppm (Botrytis cinerea [2]) | pest or weed control at 125 ppm (Venturia inaequalis) | pest or weed control at 125 ppm [3] | inhibition of growth at 25 ppm (Colletotrichum acutatum) | inhibition of growth at 25 ppm (Glomerella cingulata)

Cc1ccc(CN(NC(=O)c2cc(C)nnc2Oc2cccc(C3CC3)c2F)C(=O)OC2CC2)c(C)c1 [b-184, Cyclopropyl 2-(3-(3-cyclopropyl-2-fluorophenoxy)-6-methylpyridazine-4-carbonyl)-1-(2,4-dimethylbenzyl)hydrazine-1-carboxylate]
≥ 75%: inhibition of growth at 25 ppm (Botrytis cinerea [1]) | inhibition of growth at 25 ppm (Fusarium graminearum) | pest or weed control at 25 ppm (Botrytis cinerea [2]) | pest or weed control at 125 ppm (Botrytis cinerea [2]) | pest or weed control at 125 ppm (Venturia inaequalis) | pest or weed control at 125 ppm [3] | inhibition of growth at 25 ppm (Colletotrichum acutatum) | inhibition of growth at 25 ppm (Glomerella cingulata)

COC(=O)N(Cc1ccc(C)cc1C)NC(=O)c1ccncc1Oc1cccc(Cl)c1F [b-187]
≥ 75%: inhibition of growth at 25 ppm (Botrytis cinerea [1]) | inhibition of growth at 25 ppm (Fusarium graminearum) | pest or weed control at 25 ppm (Botrytis cinerea [2]) | pest or weed control at 125 ppm (Botrytis cinerea [2]) | pest or weed control at 125 ppm (Venturia inaequalis) | pest or weed control at 125 ppm [3] | inhibition of growth at 25 ppm (Colletotrichum acutatum) | inhibition of growth at 25 ppm (Glomerella cingulata)

COC(=O)N(Cc1ccc(C)cc1C)NC(=O)c1c(C)cnnc1Oc1cccc(Cl)c1F [b-191]
≥ 75%: inhibition of growth at 25 ppm (Botrytis cinerea [1]) | inhibition of growth at 25 ppm (Fusarium graminearum) | pest or weed control at 25 ppm (Botrytis cinerea [2]) | pest or weed control at 125 ppm (Botrytis cinerea [2]) | pest or weed control at 125 ppm (Venturia inaequalis) | pest or weed control at 125 ppm [3] | inhibition of growth at 25 ppm (Colletotrichum acutatum) | inhibition of growth at 25 ppm (Glomerella cingulata)

Cc1ccc(CN(NC(=O)c2ccncc2Oc2cccc(C3CC3)c2F)C(=O)OC2COC2)c(C)c1 [b-196]
≥ 75%: inhibition of growth at 25 ppm (Botrytis cinerea [1]) | inhibition of growth at 25 ppm (Fusarium graminearum) | pest or weed control at 25 ppm (Botrytis cinerea [2]) | pest or weed control at 125 ppm (Botrytis cinerea [2]) | pest or weed control at 125 ppm (Venturia inaequalis) | pest or weed control at 125 ppm [3] | inhibition of growth at 25 ppm (Colletotrichum acutatum) | inhibition of growth at 25 ppm (Glomerella cingulata)

COC(=O)N(Cc1ccc(C)cc1C)NC(=O)c1c(F)cncc1Oc1cccc(C2CC2)c1F [b-199]
≥ 75%: inhibition of growth at 25 ppm (Botrytis cinerea [1]) | inhibition of growth at 25 ppm (Fusarium graminearum) | pest or weed control at 25 ppm (Botrytis cinerea [2]) | pest or weed control at 125 ppm (Botrytis cinerea [2]) | pest or weed control at 125 ppm (Venturia inaequalis) | pest or weed control at 125 ppm [3] | inhibition of growth at 25 ppm (Colletotrichum acutatum) | inhibition of growth at 25 ppm (Glomerella cingulata)

COC(=O)N(Cc1ccc(OC)cc1C)NC(=O)c1c(F)cncc1Oc1cccc(Cl)c1F [b-202]
≥ 75%: inhibition of growth at 25 ppm (Botrytis cinerea [1]) | inhibition of growth at 25 ppm (Fusarium graminearum) | pest or weed control at 25 ppm (Botrytis cinerea [2]) | pest or weed control at 125 ppm (Botrytis cinerea [2]) | pest or weed control at 125 ppm (Venturia inaequalis) | pest or weed control at 125 ppm [3] | inhibition of growth at 25 ppm (Colletotrichum acutatum) | inhibition of growth at 25 ppm (Glomerella cingulata)

COC(=O)N(Cc1ccc(C)cc1C)NC(=O)c1cc(C(F)(F)F)ncc1Oc1cccc(C2CC2)c1F [b-204]
≥ 75%: inhibition of growth at 25 ppm (Botrytis cinerea [1]) | inhibition of growth at 25 ppm (Fusarium graminearum) | pest or weed control at 25 ppm (Botrytis cinerea [2]) | pest or weed control at 125 ppm (Botrytis cinerea [2]) | pest or weed control at 125 ppm (Venturia inaequalis) | pest or weed control at 125 ppm [3] | inhibition of growth at 25 ppm (Colletotrichum acutatum) | inhibition of growth at 25 ppm (Glomerella cingulata)

COC(=O)N(Cc1ccc(C)cc1C)NC(=O)c1c(OC)cncc1Oc1cccc(C2CC2)c1F [b-208]
≥ 75%: inhibition of growth at 25 ppm (Botrytis cinerea [1]) | inhibition of growth at 25 ppm (Fusarium graminearum) | pest or weed control at 25 ppm (Botrytis cinerea [2]) | pest or weed control at 125 ppm (Botrytis cinerea [2]) | pest or weed control at 125 ppm (Venturia inaequalis) | pest or weed control at 125 ppm [3] | inhibition of growth at 25 ppm (Colletotrichum acutatum) | inhibition of growth at 25 ppm (Glomerella cingulata)

CCc1cncc(Oc2cccc(C3CC3)c2F)c1C(=O)NN(Cc1ccc(C)cc1C)C(=O)OC [b-212]
≥ 75%: inhibition of growth at 25 ppm (Botrytis cinerea [1]) | inhibition of growth at 25 ppm (Fusarium graminearum) | pest or weed control at 25 ppm (Botrytis cinerea [2]) | pest or weed control at 125 ppm (Botrytis cinerea [2]) | pest or weed control at 125 ppm (Venturia inaequalis) | pest or weed control at 125 ppm [3] | inhibition of growth at 25 ppm (Colletotrichum acutatum) | inhibition of growth at 25 ppm (Glomerella cingulata)

COC(=O)N(Cc1ccc(C)cc1C)NC(=O)c1c(Oc2cccc(C3CC3)c2)cnnc1OC(C)C [b-223]
≥ 75%: inhibition of growth at 25 ppm (Botrytis cinerea [1]) | inhibition of growth at 25 ppm (Fusarium graminearum) | pest or weed control at 25 ppm (Botrytis cinerea [2]) | pest or weed control at 125 ppm (Botrytis cinerea [2]) | pest or weed control at 125 ppm (Venturia inaequalis) | pest or weed control at 125 ppm [3] | inhibition of growth at 25 ppm (Colletotrichum acutatum) | inhibition of growth at 25 ppm (Glomerella cingulata)

COC(=O)N(Cc1ccc(C)cc1C)NC(=O)c1c(Oc2cccc(Cl)c2F)nnc(Cl)c1C [b-227]
≥ 75%: inhibition of growth at 25 ppm (Botrytis cinerea [1]) | inhibition of growth at 25 ppm (Fusarium graminearum) | pest or weed control at 25 ppm (Botrytis cinerea [2]) | pest or weed control at 125 ppm (Botrytis cinerea [2]) | pest or weed control at 125 ppm (Venturia inaequalis) | pest or weed control at 125 ppm [3] | inhibition of growth at 25 ppm (Colletotrichum acutatum) | inhibition of growth at 25 ppm (Glomerella cingulata)

COC(=O)N(Cc1ccc(C)cc1C)NC(=O)c1c(C)cnnc1Oc1cccc(C2CC2)c1F [b-228]
≥ 75%: inhibition of growth at 25 ppm (Botrytis cinerea [1]) | inhibition of growth at 25 ppm (Fusarium graminearum) | pest or weed control at 25 ppm (Botrytis cinerea [2]) | pest or weed control at 125 ppm (Botrytis cinerea [2]) | pest or weed control at 125 ppm (Venturia inaequalis) | pest or weed control at 125 ppm [3] | inhibition of growth at 25 ppm (Colletotrichum acutatum) | inhibition of growth at 25 ppm (Glomerella cingulata)
